Measurements reported in publication PMC5574958, “Radiosynthesis and Preclinical Evaluation of [^18F]F-DPA, A Novel Pyrazolo[1,5a]pyrimidine Acetamide TSPO Radioligand, in Healthy Sprague Dawley Rats” (Molecular Imaging and Biology, 2017).

Tests used:
Ex vivo biodistribution = assay type: in vivo, Sprague Dawley rats; details: for Uptake of fluorine-18-radioactivity, Harderian gland / Uptake of fluorine-18-radioactivity, Brain / Uptake of fluorine-18-radioactivity, Brown fat / Uptake of fluorine-18-radioactivity, Eye x2 / Uptake of fluorine-18-radioactivity, Injection site (tail) / Uptake of fluorine-18-radioactivity, Large int. Wall + contents / Uptake of fluorine-18-radioactivity, Liver / Uptake of fluorine-18-radioactivity, Lung / Uptake of fluorine-18-radioactivity, Muscle / Uptake of fluorine-18-radioactivity, Salivary x2 / Uptake of fluorine-18-radioactivity, Small int. wall + contents / Uptake of fluorine-18-radioactivity, Stomach wall + contents / Uptake of fluorine-18-radioactivity, Testis: mean, n = 3
Experimental: After sacrifice (5, 15, 30, 60, and 90 min after injection, n = 3, for every time point and radiotracer), the blood was collected into Li-heparin tubes and transcardial perfusion with saline was conducted rapidly in order to eliminate the blood from the whole body. Following this, the organs of the animals were collected, individually weighed, and the radioactivity was measured using a gamma counter (Wizard^2 3 × 3″, PerkinElmer, Turku, Finland). The decay-corrected radioactivity is reported as percentage of injected dose per gram (%ID/g).

[1] = In vivo PET/CT imaging, time-activity curves; parameters: species or system Sprague Dawley rats
Experimental: Rats were anesthetized with isoflurane/oxygen gas and injected intravenously with [^18F]F-DPA (31.4 ± 2.1 MBq, n = 4 SA at the time of injection = 4.1 ± 0.4 GBq/μmol) for scanning by an Inveon multimodality PET/CT tomograph (Siemens Medical Solutions, Knoxville, TN, USA). In order to prevent eye dryness, a few drops of Oftagel (25 mg/g; Santen, Tampere, Finland) were applied to the eyes of the animals. The scanner has a 12.7 cm axial field of view (FOV) and 10 cm transaxial FOV generating images from 159 transaxial slices. The spatial resolution of the scanner is 1.4 mm according to the manufacturer’s specifications. The animals were scanned for 10 min with computed tomography (CT) for attenuation correction and anatomical reference, and immediately after that, the radiotracer was injected for a 60-min dynamic PET scan. Frames were taken at the following intervals: 30 × 10, 15 × 60, 4 × 300, and 2 × 600 s. Volume of interests (VOIs) were drawn over the whole brain, heart, lung, liver, and kidneys using Inveon Research Workplace Image Analysis software (Siemens Medical Solutions). From the VOIs, time–activity curves (TACs) were obtained and the uptake of [^18F]F-DPA was expressed as percentage of injected dose per milliliter of tissue (%inj. dose/ml).

CBR = details: read-out: K i CBR (selectivity); cited from earlier work
[2] = RadioTLC analyses of radiometabolites in plasma and brain homogenates; assay type: in vivo, Sprague Dawley rats; details: for Unchanged radiotracer, share of radioactivity in the brain: brain homogenate
Experimental: The blood samples were taken into Li-heparin tubes and centrifuged (3000×g, 10 min). The plasma was transferred to an Eppendorf tube and the plasma proteins were precipitated by addition of 1.5 parts of MeOH by volume. Following a further centrifugation (12,000×g, 4 min), 20 μl of the supernatant was spotted onto an aluminum-backed silica gel 60/Kieselguhr F254 TLC plate (EMD Millipore 1.05567.0001, Merck Millipore, Darmstadt, Germany).
Brain samples from the cortex were homogenized with approximately 200 μl of 1:1 v/v of MeOH and water; the mixture was transferred to an Eppendorf tube and centrifuged (12,000×g, 4 min). An aliquot (20 μl) of the supernatant was spotted onto the TLC plate.
The TLC plates were developed with a mixture of dichloromethane and methanol (9:1, v/v) for a distance of 6 cm. Following this, the plates were exposed onto an imaging plate (Fuji BAS Imaging Plate TR2025, Fuji Photo Film Co., Ltd., Tokyo, Japan) for approximately two half-lives of fluorine-18 (3.5 to 4 h). After the exposure, the imaging plates were scanned using a BAS-5000 reader (Fuji, Japan) with a resolution of 50 μm and the saved images were analyzed using TINA software (version 2.10 g, Raytest, Isotopenmessgeräte, GmbH, Straubenhardt, Germany).

TSPO = details: read-out: K i (TSPO affinity); cited from earlier work

CCN(CC)C(=O)Cc1c(-c2ccc([18F])cc2)nn2c(C)cc(C)nc12 [[^18F]F-DPA]
Uptake of fluorine-18-radioactivity, Harderian gland (Ex vivo biodistribution; 5 min after injection): 0.54 %ID/g tissue | Uptake of fluorine-18-radioactivity, Harderian gland (Ex vivo biodistribution; 15 min after injection): 0.59 %ID/g tissue | Uptake of fluorine-18-radioactivity, Harderian gland (Ex vivo biodistribution; 30 min after injection): 0.62 %ID/g tissue | Uptake of fluorine-18-radioactivity, Harderian gland (Ex vivo biodistribution; 60 min after injection): 0.83 %ID/g tissue | Uptake of fluorine-18-radioactivity, Harderian gland (Ex vivo biodistribution; 90 min after injection): 0.55 %ID/g tissue | Accumulation of radioactivity in the bone (defluorination in vivo) (Ex vivo biodistribution; after the initial uptake at 5 min, up to 90 min): no significant accumulation of radioactivity in the bone | Uptake of fluorine-18-radioactivity, Brain (Ex vivo biodistribution; 5 min after injection): 0.23 %ID/g tissue | Uptake of fluorine-18-radioactivity, Brain (Ex vivo biodistribution; 15 min after injection): 0.17 %ID/g tissue | Uptake of fluorine-18-radioactivity, Brain (Ex vivo biodistribution; 30 min after injection): 0.09 %ID/g tissue | Uptake of fluorine-18-radioactivity, Brain (Ex vivo biodistribution; 60 min after injection): 0.07 %ID/g tissue | Uptake of fluorine-18-radioactivity, Brain (Ex vivo biodistribution; 90 min after injection): 0.06 %ID/g tissue | Uptake of fluorine-18-radioactivity, Brown fat (Ex vivo biodistribution; 5 min after injection): 0.28 %ID/g tissue | Uptake of fluorine-18-radioactivity, Brown fat (Ex vivo biodistribution; 15 min after injection): 0.43 %ID/g tissue | Uptake of fluorine-18-radioactivity, Brown fat (Ex vivo biodistribution; 30 min after injection): 1.11 %ID/g tissue | Uptake of fluorine-18-radioactivity, Brown fat (Ex vivo biodistribution; 60 min after injection): 0.44 %ID/g tissue | Uptake of fluorine-18-radioactivity, Brown fat (Ex vivo biodistribution; 90 min after injection): 0.95 %ID/g tissue | Blood radioactivity compared with [^18F]DPA-714 (Ex vivo biodistribution; ex vivo %ID/g, two-tailed unpaired t test, P ≤ 0.006): significantly lower | Uptake of fluorine-18-radioactivity, Eye x2 (Ex vivo biodistribution; eye x2, 5 min after injection): 0.32 %ID/g tissue | Uptake of fluorine-18-radioactivity, Eye x2 (Ex vivo biodistribution; eye x2, 15 min after injection): 0.29 %ID/g tissue | Uptake of fluorine-18-radioactivity, Eye x2 (Ex vivo biodistribution; eye x2, 30 min after injection): 0.21 %ID/g tissue | Uptake of fluorine-18-radioactivity, Eye x2 (Ex vivo biodistribution; eye x2, 60 min after injection): 0.16 %ID/g tissue | Uptake of fluorine-18-radioactivity, Eye x2 (Ex vivo biodistribution; eye x2, 90 min after injection): 0.16 %ID/g tissue | Uptake of fluorine-18-radioactivity, Injection site (tail) (Ex vivo biodistribution; 5 min after injection): 0.36 %ID/g tissue | Uptake of fluorine-18-radioactivity, Injection site (tail) (Ex vivo biodistribution; 15 min after injection): 0.38 %ID/g tissue | Uptake of fluorine-18-radioactivity, Injection site (tail) (Ex vivo biodistribution; 30 min after injection): 0.28 %ID/g tissue | Uptake of fluorine-18-radioactivity, Injection site (tail) (Ex vivo biodistribution; 60 min after injection): 0.42 %ID/g tissue | Uptake of fluorine-18-radioactivity, Injection site (tail) (Ex vivo biodistribution; 90 min after injection): 0.38 %ID/g tissue | Uptake of fluorine-18-radioactivity, Large int. Wall + contents (Ex vivo biodistribution; 5 min after injection): 0.30 %ID/g tissue | Uptake of fluorine-18-radioactivity, Large int. Wall + contents (Ex vivo biodistribution; 15 min after injection): 0.31 %ID/g tissue | Uptake of fluorine-18-radioactivity, Large int. Wall + contents (Ex vivo biodistribution; 30 min after injection): 0.33 %ID/g tissue | Uptake of fluorine-18-radioactivity, Large int. Wall + contents (Ex vivo biodistribution; 60 min after injection): 0.29 %ID/g tissue | Uptake of fluorine-18-radioactivity, Large int. Wall + contents (Ex vivo biodistribution; 90 min after injection): 0.28 %ID/g tissue | Uptake of fluorine-18-radioactivity, Liver (Ex vivo biodistribution; 5 min after injection): 0.77 %ID/g tissue | Uptake of fluorine-18-radioactivity, Liver (Ex vivo biodistribution; 15 min after injection): 0.82 %ID/g tissue | Uptake of fluorine-18-radioactivity, Liver (Ex vivo biodistribution; 30 min after injection): 0.49 %ID/g tissue | Uptake of fluorine-18-radioactivity, Liver (Ex vivo biodistribution; 60 min after injection): 0.43 %ID/g tissue | Uptake of fluorine-18-radioactivity, Liver (Ex vivo biodistribution; 90 min after injection): 0.31 %ID/g tissue | Uptake of fluorine-18-radioactivity, Lung (Ex vivo biodistribution; 5 min after injection): 5.94 %ID/g tissue | Uptake of fluorine-18-radioactivity, Lung (Ex vivo biodistribution; 15 min after injection): 4.04 %ID/g tissue | Uptake of fluorine-18-radioactivity, Lung (Ex vivo biodistribution; 30 min after injection): 2.27 %ID/g tissue | Uptake of fluorine-18-radioactivity, Lung (Ex vivo biodistribution; 60 min after injection): 1.79 %ID/g tissue | Uptake of fluorine-18-radioactivity, Lung (Ex vivo biodistribution; 90 min after injection): 1.47 %ID/g tissue | Uptake of fluorine-18-radioactivity, Muscle (Ex vivo biodistribution; 5 min after injection): 0.07 %ID/g tissue | Uptake of fluorine-18-radioactivity, Muscle (Ex vivo biodistribution; 15 min after injection): 0.07 %ID/g tissue | Uptake of fluorine-18-radioactivity, Muscle (Ex vivo biodistribution; 30 min after injection): 0.09 %ID/g tissue | Uptake of fluorine-18-radioactivity, Muscle (Ex vivo biodistribution; 60 min after injection): 0.11 %ID/g tissue | Uptake of fluorine-18-radioactivity, Muscle (Ex vivo biodistribution; 90 min after injection): 0.12 %ID/g tissue | Uptake of fluorine-18-radioactivity, Salivary x2 (Ex vivo biodistribution; salivary x2, 5 min after injection): 0.70 %ID/g tissue | Uptake of fluorine-18-radioactivity, Salivary x2 (Ex vivo biodistribution; salivary x2, 15 min after injection): 0.82 %ID/g tissue | Uptake of fluorine-18-radioactivity, Salivary x2 (Ex vivo biodistribution; salivary x2, 30 min after injection): 1.56 %ID/g tissue | Uptake of fluorine-18-radioactivity, Salivary x2 (Ex vivo biodistribution; salivary x2, 60 min after injection): 1.21 %ID/g tissue | Uptake of fluorine-18-radioactivity, Salivary x2 (Ex vivo biodistribution; salivary x2, 90 min after injection): 1.00 %ID/g tissue | Uptake of fluorine-18-radioactivity, Small int. wall + contents (Ex vivo biodistribution; 5 min after injection): 1.19 %ID/g tissue | Uptake of fluorine-18-radioactivity, Small int. wall + contents (Ex vivo biodistribution; 15 min after injection): 1.47 %ID/g tissue | Uptake of fluorine-18-radioactivity, Small int. wall + contents (Ex vivo biodistribution; 30 min after injection): 2.00 %ID/g tissue | Uptake of fluorine-18-radioactivity, Small int. wall + contents (Ex vivo biodistribution; 60 min after injection): 1.95 %ID/g tissue | Uptake of fluorine-18-radioactivity, Small int. wall + contents (Ex vivo biodistribution; 90 min after injection): 2.59 %ID/g tissue | Uptake of fluorine-18-radioactivity, Stomach wall + contents (Ex vivo biodistribution; 5 min after injection): 0.50 %ID/g tissue | Uptake of fluorine-18-radioactivity, Stomach wall + contents (Ex vivo biodistribution; 15 min after injection): 0.54 %ID/g tissue | Uptake of fluorine-18-radioactivity, Stomach wall + contents (Ex vivo biodistribution; 30 min after injection): 0.93 %ID/g tissue | Uptake of fluorine-18-radioactivity, Stomach wall + contents (Ex vivo biodistribution; 60 min after injection): 1.07 %ID/g tissue | Uptake of fluorine-18-radioactivity, Stomach wall + contents (Ex vivo biodistribution; 90 min after injection): 0.74 %ID/g tissue | Uptake of fluorine-18-radioactivity, Testis (Ex vivo biodistribution; 5 min after injection): 0.21 %ID/g tissue | Uptake of fluorine-18-radioactivity, Testis (Ex vivo biodistribution; 15 min after injection): 0.28 %ID/g tissue | Uptake of fluorine-18-radioactivity, Testis (Ex vivo biodistribution; 30 min after injection): 0.23 %ID/g tissue | Uptake of fluorine-18-radioactivity, Testis (Ex vivo biodistribution; 60 min after injection): 0.26 %ID/g tissue | Uptake of fluorine-18-radioactivity, Testis (Ex vivo biodistribution; 90 min after injection): 0.27 %ID/g tissue | Excretion pathway ([1]; in vivo TACs, high F-18 radioactivity in the intestine): excreted via the hepatobiliary pathway | Time after injection at which concentration equilibrium is reached in the brain ([1]; whole brain TAC, i.v. injection, 60-min dynamic PET): 20 to 30 min | Ki (CBR): > 1000 nM | Unchanged radiotracer, share of radioactivity in the brain ([2]; 20–30 min after injection): greater than 95% | Unchanged radiotracer, share of radioactivity in the brain ([2]; 90 min after injection, n = 3): 93.5 ± 2.8% | Unchanged radiotracer, share of radioactivity in the plasma ([2]; plasma, 90 min after injection, n = 3): 28.3 ± 6.4% | Ki (TSPO): 1.7 nM
